Experimental data reported in PubChem BioAssay (NCI).
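48-hour exposure; five concentrations; linearly interpolated endpoints. GI50 marks 50% less growth. TGI marks complete inhibition of growth.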

Tests used:
Assay in all cases: NCI anticancer screen, dose series, 48 h
[1] = system: SW-620 colon
[2] = system: EKVX NSCLC
[3] = system: SK-MEL-5 melanoma
[4] = system: MDA-MB-435
[5] = system: TK-10 renal
[6] = system: ACHN renal
[7] = system: HOP-62 NSCLC
[8] = system: OVCAR-5 ovarian
[9] = system: PC-3 prostate
[10] = system: UO-31 renal

With `N#Cc1sc2c(c1OC(=O)c1ccc(C(F)(F)F)cc1)c(=O)n(-c1ccccc1)c(=S)n2-c1ccccc1` the TGI [1] was > 100 µM, the TGI [2] was 70.9 µM and the TGI [3] was 62.2 µM. The TGI [4] was 94.3 µM, the TGI [5] was > 100 µM and the TGI [6] was 93.5 µM. For the same compound, the TGI [7] was > 100 µM, the TGI [8] was > 100 µM and the TGI [9] was > 100 µM.

Compound `CC1(C)CCc2c(ccc(C(=O)/C=C/c3ccc(O)cc3)c2O)O1` has a TGI [1] of 24.4 µM, a TGI [10] of 25.5 µM and a TGI [2] of 10.1 µM. The TGI [3] was 22 µM, the TGI [4] was 19.9 µM and the TGI [5] was 20 µM. It also gave a TGI [6] of 20.5 µM, a TGI [7] of 19.4 µM and a TGI [8] of 21.7 µM. It also gave a TGI [9] of 17.8 µM.

With `C=CCn1c(=O)ccn(/C(=C/C(=O)OCC)C(=O)OCC)c1=O` the TGI [1] was 6.57 µM, the TGI [10] was 28.6 µM and the TGI [2] was 38.2 µM. For the same compound, the TGI [3] was 29.1 µM, the TGI [4] was 26.2 µM and the TGI [5] was 24.1 µM. For the same compound, the TGI [6] was 13.9 µM, the TGI [7] was 44.4 µM and the TGI [8] was 29.9 µM. The TGI [9] was 27.9 µM.

In the case of `COc1ccc(/C=N/NC(=O)c2ccc(O)c(CN(C)C)c2)cc1`, the TGI [1] is reported as > 100 µM, the TGI [10] is reported as > 100 µM and the TGI [2] is reported as > 100 µM. The TGI [3] was > 100 µM, the TGI [4] was > 100 µM and the TGI [5] was > 100 µM. The TGI [6] was > 100 µM, the TGI [7] was > 100 µM and the TGI [8] was > 100 µM. The TGI [9] was > 100 µM.

With `CO/N=C(/C(=O)OC)c1ccccc1COc1ccccc1C(F)(F)F` the TGI [10] was > 100 µM, the TGI [2] was 62.9 µM and the TGI [3] was 25.8 µM. The TGI [4] was > 100 µM, the TGI [5] was > 100 µM and the TGI [6] was > 100 µM. The TGI [7] was > 100 µM, the TGI [8] was > 100 µM and the TGI [9] was > 100 µM.

In the case of `CCc1n[nH]c(=O)n1-c1ccc2ccccc2c1`, the TGI [1] is reported as > 100 µM, the TGI [10] is reported as > 100 µM and the TGI [2] is reported as > 100 µM. The TGI [3] was > 100 µM, the TGI [4] was > 100 µM and the TGI [5] was > 100 µM. The TGI [6] was > 100 µM, the TGI [7] was > 100 µM and the TGI [8] was > 100 µM.

With `COC1OC2COC(c3ccccc3)OC2C(O)C1OC(=S)c1ccccc1` (stereo not given) the TGI [1] was > 100 µM, the TGI [10] was > 100 µM and the TGI [2] was 51.7 µM. The TGI [3] was 61.3 µM, the TGI [4] was 4.37 µM and the TGI [5] was > 100 µM. For the same compound, the TGI [6] was 67 µM, the TGI [7] was 91.4 µM and the TGI [8] was > 100 µM. The TGI [9] was 57.2 µM.

Work on `COc1cc2c(cc1OCCCCCN1CCN(c3ncnc4ccccc34)CC1)N=CC1CCCN1C2=O` (stereo not given) yielded a GI50 [10] of 0.03 µM, a TGI [10] of 0.198 µM and a GI50 [2] of 0.114 µM. The TGI [2] was 0.724 µM, the GI50 [3] was 0.018 µM and the TGI [3] was 0.0338 µM. It also gave a GI50 [6] of 0.0523 µM, a TGI [6] of 4.15 µM and a GI50 [7] of 0.0257 µM. For the same compound, the TGI [7] was 0.358 µM, the GI50 [8] was 0.0359 µM and the TGI [8] was 14.7 µM. The GI50 [9] was 0.0218 µM and the TGI [9] was 0.154 µM.

For `C=C(C)[C@H]1C2=CC(C(=O)OC)=C(C[C@H](C(=C)C)[C@@H](O)[C@@H](O)C3=C[C@H]1OC3=O)O2`, the TGI [1] was > 100 µM, the TGI [10] was 85.6 µM and the TGI [2] was > 100 µM. For the same compound, the TGI [3] was > 100 µM, the TGI [4] was > 100 µM and the TGI [5] was > 100 µM. The TGI [6] was > 100 µM, the TGI [7] was > 100 µM and the TGI [8] was > 100 µM.

`O=C(OCC(Cl)(Cl)Cl)N1CC[C@H](C2CCCCC2)C1` gave a TGI [10] of 35.3 µM, a TGI [2] of 32.4 µM and a TGI [3] of 30 µM. It also gave a TGI [5] of 37.9 µM, a TGI [6] of 36.7 µM and a TGI [7] of 32.8 µM. For the same compound, the TGI [8] was 34.4 µM and the TGI [9] was 48.7 µM.

`COc1cccc2c1OC(c1cccc3ccccc13)C([N+](=O)[O-])=C2` (stereo not given) gave a TGI [10] of 2.75 µM, a TGI [2] of 10.5 µM and a TGI [3] of 2.96 µM. For the same compound, the TGI [4] was 3.02 µM, the TGI [5] was 5.77 µM and the TGI [6] was 3.02 µM. The TGI [7] was 5.36 µM, the TGI [8] was 3.62 µM and the TGI [9] was 2.37 µM.

In the case of `COc1cc(Nc2ccc3c(c2)CCC3)nc(OC)n1`, the TGI [1] is reported as > 100 µM, the TGI [2] is reported as > 100 µM and the TGI [3] is reported as 62.3 µM. For the same compound, the TGI [4] was > 100 µM, the TGI [5] was > 100 µM and the TGI [6] was 73.7 µM. The TGI [7] was > 100 µM, the TGI [8] was > 100 µM and the TGI [9] was > 100 µM.

For `O=C(NCCCl)O/N=C/c1cccnc1`, the TGI [1] was > 100 µM, the TGI [10] was > 100 µM and the TGI [2] was > 100 µM. The TGI [3] was > 100 µM, the TGI [7] was > 100 µM and the TGI [8] was > 100 µM.

With `C=C1C(=O)[C@@]23CC[C@@H]4[C@@]5(C)CCC[C@@]4(OC5=O)[C@@]2(C)CC[C@@H]1C3` the TGI [10] was 3.43 µM, the TGI [2] was 11.8 µM and the TGI [3] was 3.49 µM. It also gave a TGI [4] of 13.7 µM, a TGI [5] of 2.44 µM and a TGI [6] of 2.64 µM. The TGI [7] was > 23.7 µM, the TGI [8] was 6.27 µM and the TGI [9] was 5.31 µM.

For `Cc1cc(OP2(=O)NCc3ncccc3O2)ccc1Cl` (stereo not given), the TGI [1] was > 100 µM, the TGI [10] was > 100 µM and the TGI [2] was > 100 µM. For the same compound, the TGI [3] was > 100 µM, the TGI [4] was > 100 µM and the TGI [6] was > 100 µM. For the same compound, the TGI [7] was > 100 µM, the TGI [8] was > 100 µM and the TGI [9] was > 100 µM.
